In the oligonucleotide strings, read from the 5' end, every base follows the letter of its sugar. An asterisk marks phosphorothioate; unmarked linkages are phosphodiester. Other units and linkages are bracketed, terminal groups are in braces. A string of capitals states the bases alone. e = 2'-O-(2-methoxyethyl) (MOE); [5mC] = 5-methylcytosine; d = 2'-deoxy (DNA)
Experiments:
[1] = Body weight, body length, organ weights and food intake, 1 week pilot study; assay type: in vivo, mouse
Description: (§1) Saline, antisense, mismatch control and octreotide samples were prepared, and coded for blinding. Animals were given a subcutaneous dose of saline every second day, and mismatch control or antisense with administration on days 0, 2, 4, 6. Animals were given twice daily doses of 25 μg octreotide. Animals were housed 4 per cage, for the duration of one week. They had access to a pre-determined quantity of standard mouse food and water at all times throughout the experiment. They were housed in a quiet, temperature- and humidity-maintained environment for the entirety of the study. At day 0 and before treatment on each day or second day, the animals had their body weight and food intake measured, enabling the correct dose of agent to be administered. The animals were monitored closely for any changes in fur, skin, eye, locomotion or other changes in behavior. No problems were observed. Every second day from day −7 to day 7 body weight and food intake were measured.
The serum remaining following the insulin-like growth factor-1 assay was isolated and stored at −80° C. The whole liver was removed rapidly for weighing and snap-frozen in labelled aluminum parcels by submersion in liquid-nitrogen. […]
This confirms published results of others. […] Weight was measured in two ways: weight trend (live animal), and final carcass weight. […]

[2] = system: serum insulin-like growth factor-I; experiment: Serum IGF-I by radioimmunoassay, 1 week pilot study in Balb/C(a) mice; assay type: in vivo, mouse
Description: Forty male Balb/C(a) mice weighing 9 to […] were placed into cages, 4 animals per cage, and allowed to assimilate into their environment with new littermates ˜1 week prior (Day −7) to the commencement of 1 week study. Mice of this age would be at their maximum growth rate. Their body weights were measured and recorded every second day during this period. When mice weighed 11 g (day −2), a blood sample was collected under anesthesia as described below, and a serum IGF-I assay was performed to determine pre-treatment values and to aid in the assigning of mice to treatment groups in order to reduce animal variability. To obtain the blood sample, the animals were anaesthetized with pentobarbital (50 mg/kg i.p.) and non-fasting blood samples collected exactly 5 minutes later from the retrobulbar plexus through heparinized capillary tubes under light ether anesthesia. The 40 animals were placed into five groups with each group having a similar weight average and similar IGF-I average concentration for the trial.
Animals (n=8/group) were designated to the following five treatment groups:
as §1
On day 7, one day after the last dose of antisense, and/or after the last octreotide dose, the animals were anaesthetized with pentobarbital (50 mg/kg i.p.) and non-fasting blood samples collected exactly 5 minutes later from the retrobulbar plexus through heparinized capillary tubes under light ether anesthesia (as on day −7 and 0).
At day −2 and day 7, serum IGF-I measurement was done by radioimmunoassay. Serum IGF-I level is the most widely used measure of growth hormone biological activity in human therapy. It is used to measure the efficacy of growth hormone antagonist treatments like Trovert, which block cells' responsiveness to excess growth hormone, and dopamine agonists and octreotide somatostatin […] drugs that block growth hormone secretion from the pituitary.

[3] = system: growth hormone receptor mRNA; experiment: Growth hormone receptor mRNA levels in liver, 2 week study; assay type: in vivo, mouse; settings: 30 mg/kg; two-week study
Description: (§2) A two-week study was done in similar fashion to the one-week study in Example 18, this time using ISIS 227446 at doses of 3, 5, 10, 20 and 30 mg/kg. The mismatch control was given at the same doses. Mice were treated with antisense compound or saline every other day for 14 days.
Growth hormone receptor mRNA levels in liver tissue samples from treated and untreated mice in this two-week study were assayed. The growth hormone receptor antisense inhibitor ISIS 227446 reduced growth hormone receptor mRNA levels in liver after the two-week study by 50% at the 20 mg/kg dose relative to saline control (p<0.001). The 30 mg/kg dose of ISIS 227446 yielded a 53% decrease in growth hormone receptor mRNA (p<0.0001). The mismatch control oligonucleotide ISIS 261303 (SEQ ID NO: 267), at 30 mg/kg, reduced growth hormone receptor mRNA levels by approximately 3%.

[4] = system: growth hormone receptor; experiment: [125I] hGH specific binding assay on liver microsomal membranes of treated mice; assay type: in vivo, mouse
Description: Specific binding assays were carried out with liver tissue using iodinated human growth hormone [^125I] hGH.
Microsomal membrane preparations were obtained as follows. 400 mg of tissue powder was homogenized in cold homogenizing buffer (50 mM Tris/HCl, 250 mM sucrose, pH 7.4). This was centrifuged at 2000 rpm for 10 min at 3° C. and the supernatant was saved. This was centrifuged again at 15,000 rpm for 20 min. Pellets were resuspended in 0.5 ml of RRA buffer with inhibitor (50 mM Tris, 20 mM MgCl2, pH 7.4). Microsomal preparation samples were stored at −80° C. until the specific binding assay.
The [^125I] hGH specific binding assay was done as follows. Four glass tubes were set up for each sample, two for (−), two for (+). Different sample and solutions were added in each tube as follows (i) 0.2 ml RRA buffer (50 mM Tris, 20 mM MgCl2, 0.1% BSA, pH 7.4); (ii) 0.1 ml membrane (½ or ¼ dilution); (iii) 0.1 ml bGH (10 μg/ml) for the (+) tube or 0.1 ml RRA buffer for the (−) tube; and (iv) 0.1 ml [^125I]-hGH tracer.
Samples were incubated at 4° C. with shaking overnight. The reaction was stopped with 2.5 ml of cold RRA, and the sample centrifuged at 2800 rpm for 25 min at 4° C. Supernatant was aspirated and pellets counted using the γ-counter. The specific binding capacity was calculated as: CPM(−)-CPM(+). Protein content of the microsomal samples was determined by the BCA protein assay.

[5] = cited from earlier work
[6] = system: serum IGF-I; settings: animal models; decreased tumor volume in breast cancer; cited from earlier work
[7] = system: serum IGF-I; experiment: Serum IGF-I, 2 week study in mice; assay type: in vivo, mouse
Description: as §2
P-values were determined by t-test.

[8] = 30 mg/kg s.c. once every 2 days, 1 week
[9] = liver microsomal membranes, 30 mg/kg every second day for one week
[10] = 30 mg/kg s.c. every second day for one week
[11] = 30 mg/kg every second day for one week

C[C@@H](O)[C@@H]1NC(=O)[C@H](CCCCN)NC(=O)[C@@H](Cc2c[nH]c3ccccc23)NC(=O)[C@H](Cc2ccccc2)NC(=O)[C@@H](NC(=O)[C@H](N)Cc2ccccc2)CSSC[C@@H](C(=O)N[C@H](CO)[C@@H](C)O)NC1=O [Octreotide, octreotide, reference compound]
liver weight (g/total body weight) ([1]; octreotide group): slight increase

ISIS 261303: negative control oligonucleotide, 8-base mismatch to ISIS 227446 (DNA AGAGAGCTACCTAACTAACA; chemistry not given here) [reference compound]
% IGF-I reduction at day 7 compared to saline control at day 7 [2, 8]: 21% | IGF-I (ng/ml) Day 7 [2, 8]: 81.1 ± 19.16 ng/mL | % IGF-I reduction at day 7 compared to saline control at day 7 ([2]; 30 mg/kg s.c. once every 2 days, 1 week, listed as Mismatch): 20.98% | IGF-I (ng/ml) Day −2 ([2]; pre-treatment value, 30 mg/kg once every 2 days group): 184.87 ± 55.6 ng/mL | reduction of growth hormone receptor mRNA levels in liver [3]: approximately 3% | effect on growth hormone receptor levels compared to the control saline group ([4]; 30 mg/kg): no effect | Specific binding/mg protein (cpm) ¼ dilution [4, 9]: 8431 ± 2663 cpm | Specific binding/mg protein (cpm) ½ dilution [4, 9]: 7090 ± 1877 cpm

Pegvisomant [Trovert]
drop-out rate ([5]; clinical trial experience): 10% | serum insulin-like growth factor-I levels reduced by ([5]; human therapeutic Trovert doses, 12 week and greater than 1 year studies): 50% | antibodies being made to Trovert, time of dosing ([5]; immunogenicity): ≤ 1 month | effective in % of patients ([5]; patients with acromegaly): 90-95% | reduction of serum IGF-I [6]: 20-50%

TTACCGTATGGTTCCTCACT (chemistry not given here) [ISIS 260120, unrelated negative control oligonucleotide, reference compound]
effect on serum IGF-I at 30 mg/kg as observed with the mismatch oligonucleotide ([7]; 30 mg/kg, 2 weeks): not observed

acaaagatccatacctgaga (eA*e[5mC]*eA*eA*eA*dG*dA*dT*d[5mC]*d[5mC]*dA*dT*dA*d[5mC]*d[5mC]*eT*eG*eA*eG*eA; antisense) [ISIS 227446]
serum IGF-I as % of the control (saline) group [2, 10]: 55% | % IGF-I reduction at day 7 compared to saline control at day 7 [2, 8]: 45% | % IGF-I reduction at day 7 compared to saline control at day 7 ([2]; 30 mg/kg s.c. once every 2 days, 1 week, listed as ASO): 44.51% | effect on serum IGF-I levels ([7]; 3 mg/kg, equivalent to saline (untreated) control (separate experiment)): no effect | reduction of growth hormone receptor mRNA levels in liver [3]: 53% | reduction of specific binding compared to saline, ¼ dilution [4, 11]: 39% | reduction of specific binding compared to saline, ½ dilution [4, 11]: 26% | growth hormone receptor levels (growth hormone binding activity) as % of control (saline) group [4, 10]: 61% | growth hormone receptor levels as % of the control (mismatch) group ([4]; ½ dilution experiment, 30 mg/kg): 59% | influence on body weight or organ weights ([1]; 30 mg/kg every second day): not sufficient to influence body weight or organ weights

Source: US9988635B2, “Modulation of growth hormone receptor expression and insulin-like growth factor expression” (Antisense Therapeutics Limited, priority 2003, dated 2018)
